Patent US10370327B2, “Ionic liquid films with multiple functionalities for surface modification of biomedical alloys” (BOARD OF REGENTS, THE UNIVERSITY OF TEXAS SYSTEM, priority 2014, dated 2019)
Read-outs that look alike come from different tables or passages of the source.

Legend:
MC3T3-E1 cell line [1] = assay: MTT cytotoxicity assay, dose-response in MC3T3-E1 cells; type: cell-based; settings: read-out: Toxicity IC50
Source text: Without wishing to be bound by any theory, it is believed that the ionic liquids (ILs) structures prevent the hydrophobic effects of the imidazolium cation and thus cellular uptake by the introduction of a second cationic head. These structures, which are formed by two imidazolium rings linked by an alkyl chain and anionic counterpart, may result in non-toxic compounds because the dicationic structure will not be able to penetrate and alter the physical properties of the lipid bilayer. The ionic liquids were synthesized and performed preliminary studies with the dicationic imidazolium-based IL compounds as described above, and the IC50 values were assessed through MTT assay (Gindri et al., 2014).
The ionic liquids were synthesized and performed preliminary studies with the dicationic imidazolium-based IL compounds as described above, and the IC50 values were assessed through MTT assay (Egorova et al., 2014). The toxicity of ionic liquids was accessed using MC3T3-E1 cell lines. The cells were plated in 6-well plates and after 24 h, cells were treated with media containing a range of concentrations of ionic liquids. All concentrations tested for generation of dose-response curves. A non-linear regression sigmoidal dose-response curve was fitted to each set of values to allow the calculation of IC50 values.

MC3T3-E1 cell line [2] = settings: monocationic analogue of IL1, comparison value; read-out: IC50 of monocationic IL; cited from earlier work
[3] = test system: osteoblast-like cells (MC3T3-E1); assay: Alkaline phosphatase activity / osteoblast differentiation on IL-coated Ti; type: cell-based; settings: day 1 and day 7
Source text: FIGS. 6A-6F show osteoblast identification through alkaline phosphatase assay. Ti Control on day 1 (FIG. 6A) and day 7 (FIG. 6D) along with IL9 coated Ti shown on day 1 (FIG. 6B) and day 7 (FIG. 6E) are shown. […] Cell differentiation was observed after 7 days on Ti control and IL9 coated Ti in which osteoblast are distinguished from stem cells by the purple color of the stain as indicated by the black arrows. […] As such, these compounds can be considered to be non-toxic to cells while still maintaining anti-microbial properties.
Experiments were performed in which Ti control disks, IL9-coated Ti, and IL12-coated Ti were exposed to gingival epithelial (HGF-1) and osteoblast-like cells (MC3T3-E1) during periods of 1 and 7 days. It was observed that after 1 day both Ti control and IL-coated Ti were covered with a layer of osteoblast-like cells (FIGS. 6A & 6B) illustrating the initial cell attachment on the surface. […] In vitro and in vivo osteoblast cell differentiation can be characterized during a phase denominated matrix maturation. During this period, a high expression of alkaline phosphatase (AP) is observed and can be used as an early differentiation marker to evaluate the differentiation of stem cells into osteoblasts (Shang et al., 2014 and Wang et al., 2012). […]

[4] = test system: gingival epithelial (HGF-1); assay: Cell proliferation (MTT) on IL-coated Ti, gingival epithelial cells; type: cell-based; settings: HGF-1, 1 and 7 days
S. mutans = S. mutans planktonic and biofilm CFU on IL-coated Ti in artificial saliva/BHI; type: cell-based, Streptococcus mutans
Experimental: To determine if ILs retain antimicrobial activity when applied to Ti, preliminary experiments with two ILs (IL9 and IL12) and S. mutans, an early colonizer. Control Ti, IL9-coated Ti, and IL12-coated Ti were immersed in artificial saliva/brain heart infusion (BHI) medium containing S. mutans for 24 h and 72 h. After this period, planktonic bacterial cells in the fluid medium in which disks were immersed, and biofilm cells, adhered to the disk surface, were quantified by serial dilution and plating.

[5] = test system: osteoblast-like cells (MC3T3-E1); assay: Cell proliferation (MTT) on IL-coated Ti, osteoblast-like cells; type: cell-based; settings: MC3T3-E1, 1 and 7 days
[6] = DLS of TiO2 particles and equimolar TiO2 + ionic liquid; type: physicochemical; settings: for Rh1 hydrodynamic radius: IL + TiO2, relaxation mode 1; for Rh2 hydrodynamic radius: IL + TiO2, relaxation mode 2; for Thickness of IL film on TiO2 particles: difference IL + TiO2 minus TiO2
Experimental: To evaluate the morphologic characteristics of new structures formed by TiO2+ionic liquid both DLS and SEM techniques were used. […] DLS experiments were performed with TiO2 particles only, and with solutions of equimolar amounts of TiO2+ionic liquid. The hydrodynamic radius (Rh) of pure TiO2 particles and mixture of TiO2+ionic liquid was monitored and compared in order to analyze the formation of new organized phases related to ionic liquid film adhesion on TiO2 particles. […] The value from the difference between the size of TiO2+ionic liquid and TiO2 was used to calculate ionic liquid film thickness formed on TiO2 particles.
Comparing the data between pure TiO2 and the mixtures of [DBMIM]2[Br], [DBMIM]2[BF4] and [DBMIM]2[NTf2], it can be observed that in the first relaxation mode (Rh1) a small difference was detected between the size of the particles, which can be related with the single TiO2 nanoparticles, [DBMIM]2[Br], [DBMIM]2[BF4] and [DBMIM]2[NTf2] dispersed in solution. However, in the second relaxation mode a significant difference was noted between the size of pure TiO2 nanoparticles and TiO2+ionic liquid (Table 6). It was observed that Rh2 tended to increase with ionic liquid presence, which thus indicates film formation on the particles surface. Another interesting characteristic from the DLS results is that film thickness increased with hydrophobicity of anions (FIG. 1), which is in agreement with the trend reported by Ulbricht and Wittmar, 2012.

[7] = Thermal analysis of pure ionic liquid and equimolar mixture with TiO2 nanoparticles; type: physicochemical
Experimental: In order to evaluate the affinity of ionic liquids with the titanium surface, experiments were conducted with imidazole derived ionic liquids having as contra-ion the anions Br^−, BF4^− and NTf2^−. In the study, TiO2 nanoparticles were used instead of bulk titanium in order to allow for a better understanding of the interaction of the selected ionic liquids with the Ti oxide film (TiO2). Thermal behavior of TiO2 pure (nanoparticles), ionic liquid pure and the equimolar mixture of TiO2 and the different ionic liquids attempted were evaluated. […] Based upon the loss of a glass transition and the introduction of a new melting point for the TiO2 nanoparticle and the [DBMIM]2[NTf2], without wishing to be bound by any theory, it is believed that a more organized structural arrangement is formed (Grindri, et al., 2014).

For `C[n+]1ccn(CCCCCCCCCCn2cc[n+](C)c2)c1` [IL-8, 1,10-Bis(3-methylimidazolium-1-yl)decane diascorbate], the IC50 (MC3T3-E1 cell line [1]) was 3.1 ± 1.2 mM.

For `CCCCCCCCn1cc[n+](C)c1` [[C8mim][Br]], the IC50 (MC3T3-E1 cell line [2]) is listed as 1.51 ± 0.2 mM.

`CC(C)C[C@H](N)C(=O)O.CC(C)C[C@H](N)C(=O)O.C[n+]1ccn(CCCCCCCCCCn2cc[n+](C)c2)c1` [IL-10, 1,10-Bis(3-methylimidazolium-1-yl)decane dileucine] showed an IC50 (MC3T3-E1 cell line [1]) of 12.3 ± 0.5 mM.

With `C[n+]1ccn(CCCCCCCCCCn2cc[n+](C)c2)c1.[Br-].[Br-]` [IL-7, 1,10-Bis(3-methylimidazolium-1-yl)decane dibromide] the IC50 (MC3T3-E1 cell line [1]; Mus musculus) was 12.3 ± 0.1 mM and the melting point was 130.77 °C.

In the case of `C[n+]1ccn(CCCCCCCCCCn2cc[n+](C)c2)c1.NC(Cc1ccccc1)C(=O)[O-].NC(Cc1ccccc1)C(=O)[O-]` [IL-9, 1,10-Bis(3-methylimidazolium-1-yl)decane diphenylalanine], the IC50 (MC3T3-E1 cell line [1]) is reported as 8.5 ± 1.5 mM, the “ALP activity / cell differentiation versus Ti control” value [3] is reported as “without statistically significant differences” and the “Cell proliferation versus Ti control” value [4] is reported as “did not show significant differences”. The “Anti-S. mutans activity of coated surface” value (S. mutans; 72 h trial) was “retain significant anti-S. mutans activity”, the “S. mutans recovered from coated Ti surfaces” value (S. mutans; biofilm cells after 24 h, control Ti ~10^6 CFU) was ~10^2 CFU and the “Cell proliferation versus Ti control” value [5] was “did not show significant differences”.

“1,8-Bis(3-methylimidazolium-1-yl)octane dihistidine [IL-5]” showed an IC50 (MC3T3-E1 cell line [1]) of 25.7 ± 8.7 mM.

Work on `C[n+]1ccn(CCCCCCCCCCn2cc[n+](C)c2)c1.N[C@@H](Cc1c[nH]cn1)C(=O)O.N[C@@H](Cc1c[nH]cn1)C(=O)O` [IL-11, 1,10-Bis(3-methylimidazolium-1-yl)decane dihistidine] yielded an IC50 (MC3T3-E1 cell line [1]) of 12.9 ± 1.1 mM.

In the case of “1,8-Bis(3-methylimidazolium-1-yl)octane diascorbate [IL-2]”, the IC50 (MC3T3-E1 cell line [1]) is reported as 3.6 ± 0.6 mM.

For `CSCC[C@H](N)C(=O)O.CSCC[C@H](N)C(=O)O.C[n+]1ccn(CCCCCCCCCCn2cc[n+](C)c2)c1` [IL-12, 1,10-Bis(3-methylimidazolium-1-yl)decane dimethionine], the IC50 (MC3T3-E1 cell line [1]) was 13.9 ± 2.7 mM and the “Antimicrobial activity of coated Ti against S. mutans” value (S. mutans; 24 h and 72 h immersion) was “did not show significant antimicrobial activity”.

For “1,8-Bis(3-methylimidazolium-1-yl)octane dileucine [IL-4]”, the IC50 (MC3T3-E1 cell line [1]) was 12.5 ± 0.2 mM.

“1,8-Bis(3-methylimidazolium-1-yl)octane diphenylalanine [IL-3]” showed an IC50 (MC3T3-E1 cell line [1]) of 8.3 ± 3 mM.

`C[n+]1ccn(CCCCCCCCn2cc[n+](C)c2)c1.[Br-].[Br-]` [IL-1, 1,8-bis(3-methylimidazolium-1-yl) octane bromide] gave an IC50 (MC3T3-E1 cell line [1]; Mus musculus) of 24.6 ± 3.5 mM, a Rh1 hydrodynamic radius [6] of 0.8 nm and a Rh2 hydrodynamic radius [6] of 421.9 nm. The “Thickness of IL film on TiO2 particles” value ([6]; relaxation mode 1) was 0.2 nm, the “Thickness of IL film on TiO2 particles” value ([6]; relaxation mode 2) was 118.4 nm and the “Td1 first decomposition temperature” value ([7]; IL + TiO2 equimolar mixture) was 310.0 °C. For the same molecule, the “Td2 second decomposition temperature” value ([7]; IL + TiO2 equimolar mixture) was 372.9 °C and the “Td1 first decomposition temperature” value ([7]; pure ionic liquid) was 307.5 °C.

With “1,8-bis(3-methylimidazolium-1-yl)octane bis (trifluoromethane) sulfonimide [IL-14]” the Rh1 hydrodynamic radius [6] was 1.6 nm, the Rh2 hydrodynamic radius [6] was 894.6 nm and the “Thickness of IL film on TiO2 particles” value ([6]; relaxation mode 1) was 0.9 nm. The “Thickness of IL film on TiO2 particles” value ([6]; relaxation mode 2) was 591.1 nm, the “Td1 first decomposition temperature” value ([7]; IL + TiO2 equimolar mixture) was 463 °C and the “Td1 first decomposition temperature” value ([7]; pure ionic liquid) was 473 °C.

With `C[n+]1ccn(CCCCCCCCn2cc[n+](C)c2)c1.F[B-](F)(F)F.F[B-](F)(F)F` [IL-13, 1,8-bis(3-methylimidazolium-1-yl) octane tetrafluorborate] the Rh1 hydrodynamic radius [6] was 0.7 nm, the Rh2 hydrodynamic radius [6] was 513.0 nm and the “Thickness of IL film on TiO2 particles” value ([6]; relaxation mode 1) was 0.1 nm. For the same molecule, the “Thickness of IL film on TiO2 particles” value ([6]; relaxation mode 2) was 209.5 nm, the “Td1 first decomposition temperature” value ([7]; IL + TiO2 equimolar mixture) was 343.8 °C and the “Td2 second decomposition temperature” value ([7]; IL + TiO2 equimolar mixture) was 455.8 °C. The “Td1 first decomposition temperature” value ([7]; pure ionic liquid) was 346.8 °C and the “Td2 second decomposition temperature” value ([7]; pure ionic liquid) was 455.8 °C.

For “1,8-Bis(3-methylimidazolium-1-yl)octane dimethionine [IL-6]”, the IC50 (MC3T3-E1 cell line [1]) was 24.2 ± 10.3 mM.
